Where two headings read alike, the source gives them in different places. Starred links: 1 amine or outer side, 2 acyl side, 3 side chain; linkers in the order of their positions; H or OH if unused. Non-standard residues stand in square brackets, D forms with d. Residues, ends and D or L forms follow the SMILES beside them. *: point of attachment. Dolaproine = CO[C@@H]([C@@H]1CCCN1)[C@@H](C)C(=O)O; X1 = O=C([C@@H]1[C@H]2CC[C@H](C2)N1[*:1])[*:2]; X3 = NC(=O)CN1[C@@H]2CC[C@@H](C2)[C@H]1C(=O)*; Dil = CC[C@H](C)[C@H](NC)[C@@H](CC(=O)O)OC; X4 = N#CCN1[C@@H]2CC[C@@H](C2)[C@H]1C(=O)*; X2 = CN1[C@@H]2CC[C@@H](C2)[C@H]1C(=O)*; Phe(ol) = N[C@H](CO)Cc1ccccc1
Key:
Assay in all cases: In vitro cell killing assay of payloads (cell proliferation, Cell-Titer-Glo)
Type in all cases: cell-based
HCC1954 cells = settings: Homo sapiens, read-out: In vitro cell killing (IC50 (nM)) HCC1954
JimT1 cells = settings: Homo sapiens, JIMT-1, 120 h, read-out: In vitro cell killing (IC50 (nM)) JimT1
H526 cells = settings: Homo sapiens, read-out: In vitro cell killing (IC50 (nM)) NCI-H526
A375 cells = settings: Homo sapiens, A-375, 120 h, Cell-Titer-Glo after five days
Description: (§1) For evaluation of the cell killing potency of the cytotoxic peptides of Formula (I) in vitro, cell proliferation assays were performed in parallel with 8 cell lines: MDA-MB231 clone 16, clone 40, JimT1, HCC1954, H526, KU812, CMK11-5 cells and Jurkat cells. In addition, in vitro, cell proliferation assays were performed using 3 other cell lines: A375, SKBR3 and NCI-N87. All the cell lines are described in more detail in Example 106 and were also used to assess the in vitro potency of immunoconjugates of the invention. The cell proliferation assays were conducted with Cell-Titer-Glo™ (Promega) five days after cells were incubated with various concentrations of ADCs (Riss et al., (2004) Assay Drug Dev Technol. 2:51-62).

SKBR3 cells = settings: Homo sapiens, SK-BR-3, 120 h, Cell-Titer-Glo after five days
Description: as §1

NCI-N87 cells = settings: Homo sapiens, 120 h, Cell-Titer-Glo after five days
Description: as §1

[1] = 120 h, HCC1954 cells, Cell-Titer-Glo after five days, Table 2b
[2] = JimT1 cells, Cell-Titer-Glo after five days, Table 2b
[3] = 120 h, NCI-H526 cells, Cell-Titer-Glo after five days, Table 2b

| SMILES | IC50 (HCC1954 cells; [1]) | IC50 (JimT1 cells; [2]) | IC50 (H526 cells; [3]) | IC50 (A375 cells) | IC50 (SKBR3 cells) | IC50 (NCI-N87 cells) | IC50 (HCC1954 cells; HCC1954, 120 h) | IC50 (JimT1 cells) | IC50 (H526 cells; NCI-H526, 120 h) |
| --- | --- | --- | --- | --- | --- | --- | --- | --- | --- |
| CC[C@H](C)[C@@H]([C@@H](CC(=O)N1CCC[C@H]1[C@H](OC)[C@@H](C)C(=O)N[C@@H](Cc1ccccc1)C(=O)OC)OC)N(C)C(=O)[C@@H](NC(=O)[C@@H]1[C@H]2CC[C@H](C2)N1C)C(C)C [Compound 53, (S)-Methyl 2-((2R,3R)-3-((S)-1-((3R,4S,5S)-4-((S)-N,3-dimethyl-2-((1R,3S,4S)-2-methyl-2-azabicyclo[2.2.1]heptane-3-carboxamido)butanamido)-3-methoxy-5-methylheptanoyl)pyrrolidin-2-yl)-3-methoxy-2-methylpropanamido)-3-phenylpropanoate] (X2-V[Dil][Dolaproine]F-OMe) | 0.009 nM | 0.011 nM | 0.121 nM | 0.0121 nM | 0.008 nM | – | – | – | – |
| CC[C@H](C)[C@@H]([C@@H](CC(=O)N1CCC[C@H]1[C@H](OC)[C@@H](C)C(=O)N[C@@H](Cc1ccccc1)C(=O)O)OC)N(C)C(=O)[C@@H](NC(=O)[C@@H]1[C@H]2CC[C@H](C2)N1C)C(C)C [Compound 54, (S)-2-((2R,3R)-3-((S)-1-((3R,4S,5S)-4-((S)-N,3-Dimethyl-2-((1R,3S,4S)-2-methyl-2-azabicyclo[2.2.1]heptane-3-carboxamido)butanamido)-3-methoxy-5-methylheptanoyl)pyrrolidin-2-yl)-3-methoxy-2-methylpropanamido)-3-phenylpropanoic acid] (X2-V[Dil][Dolaproine]F-OH) | 7.18 nM | 17.1 nM | 54.8 nM | 27.4 nM | – | 7.59 nM | – | – | – |
| CC[C@H](C)[C@@H]([C@@H](CC(=O)N1CCC[C@H]1[C@H](OC)[C@@H](C)C(=O)N[C@H](CO)Cc1ccccc1)OC)N(C)C(=O)[C@@H](NC(=O)[C@@H]1[C@H]2CC[C@H](C2)N1CC#N)C(C)C [Compound 63, (1R,3S,4S)-2-(Cyanomethyl)-N-((S)-1-(((3R,4S,5S)-1-((S)-2-((1R,2R)-3-(((S)-1-hydroxy-3-phenylpropan-2-yl)amino)-1-methoxy-2-methyl-3-oxopropyl)pyrrolidin-1-yl)-3-methoxy-5-methyl-1-oxoheptan-4-yl)(methyl)amino)-3-methyl-1-oxobutan-2-yl)-2-azabicyclo[2.2.1]heptane-3-carboxamide] (X4-V[Dil][Dolaproine][Phe(ol)]) | 1.64 nM | 5.08 nM | 6.49 nM | 14.3 nM | – | 2.09 nM | – | – | – |
| CC[C@H](C)[C@@H]([C@@H](CC(=O)N1CCC[C@H]1[C@H](OC)[C@@H](C)C(=O)N[C@H](CO)Cc1ccccc1)OC)N(C)C(=O)[C@@H](NC(=O)[C@@H]1[C@H]2CC[C@H](C2)N1CC(N)=O)C(C)C [Compound 64, (1R,3S,4S)-2-(2-Amino-2-oxoethyl)-N-((S)-1-(((3R,4S,5S)-1-((S)-2-((1R,2R)-3-(((S)-1-hydroxy-3-phenylpropan-2-yl)amino)-1-methoxy-2-methyl-3-oxopropyl)pyrrolidin-1-yl)-3-methoxy-5-methyl-1-oxoheptan-4-yl)(methyl)amino)-3-methyl-1-oxobutan-2-yl)-2-azabicyclo[2.2.1]heptane-3-carboxamide] (X3-V[Dil][Dolaproine][Phe(ol)]) | 1.09 nM | 4.15 nM | 5.74 nM | 25.6 nM | – | 1.21 nM | – | – | – |
| CC[C@H](C)[C@@H]([C@@H](CC(=O)N1CCC[C@H]1[C@H](OC)[C@@H](C)C(=O)N[C@H](CO)Cc1ccccc1)OC)N(C)C(=O)[C@@H](NC(=O)[C@@H]1[C@H]2CC[C@H](C2)N1C(C)=O)C(C)C [Compound 65, (1R,3S,4S)-2-Acetyl-N-((S)-1-(((3R,4S,5S)-1-((S)-2-((1R,2R)-3-(((S)-1-hydroxy-3-phenylpropan-2-yl)amino)-1-methoxy-2-methyl-3-oxopropyl)pyrrolidin-1-yl)-3-methoxy-5-methyl-1-oxoheptan-4-yl)(methyl)amino)-3-methyl-1-oxobutan-2-yl)-2-azabicyclo[2.2.1]heptane-3-carboxamide] (Ac-[X1]V[Dil][Dolaproine][Phe(ol)]) | 0.93 nM | 6.88 nM | 3.82 nM | 31.3 nM | – | 3.67 nM | – | – | – |
| CC[C@H](C)[C@@H]([C@@H](CC(=O)N1CCC[C@H]1[C@H](OC)[C@@H](C)C(=O)N[C@@H](Cc1ccccc1)c1nc(-c2ccccc2)c[nH]1)OC)N(C)C(=O)[C@@H](NC(=O)[C@@H]1[C@H]2CC[C@H](C2)N1C)C(C)C [Compound 66, (1R,3S,4S)-N-((S)-1-(((3R,4S,5S)-3-Methoxy-1-((S)-2-((1R,2R)-1-methoxy-2-methyl-3-oxo-3-(((S)-2-phenyl-1-(4-phenyl-1H-imidazol-2-yl)ethyl)amino)propyl)pyrrolidin-1-yl)-5-methyl-1-oxoheptan-4-yl)(methyl)amino)-3-methyl-1-oxobutan-2-yl)-2-methyl-2-azabicyclo[2.2.1]heptane-3-carboxamide] | 0.023 nM | 0.052 nM | 0.126 nM | 0.05 nM | 0.031 nM | – | – | – | – |
| CC[C@H](C)[C@@H]([C@@H](CC(=O)N1CCC[C@H]1[C@H](OC)[C@@H](C)C(=O)N[C@H](COC)Cc1ccccc1)OC)N(C)C(=O)[C@@H](NC(=O)[C@@H]1[C@H]2CC[C@H](C2)N1C)C(C)C [Compound 67, (1R,3S,4S)-N-((S)-1-(((3R,4S,5S)-3-Methoxy-1-((S)-2-((1R,2R)-1-methoxy-3-(((S)-1-methoxy-3-phenylpropan-2-yl)amino)-2-methyl-3-oxopropyl)pyrrolidin-1-yl)-5-methyl-1-oxoheptan-4-yl)(methyl)amino)-3-methyl-1-oxobutan-2-yl)-2-methyl-2-azabicyclo[2.2.1]heptane-3-carboxamide] | – | – | – | 0.244 nM | – | – | 0.239 nM | 0.369 nM | 0.614 nM |
| CC[C@H](C)[C@@H]([C@@H](CC(=O)N1CCC[C@H]1[C@H](OC)[C@@H](C)C(=O)N[C@@H](Cc1ccccc1)c1cc[nH]n1)OC)N(C)C(=O)[C@@H](NC(=O)[C@@H]1[C@H]2CC[C@H](C2)N1C)C(C)C [Compound 68, (1R,3S,4S)-N-((S)-1-(((3R,4S,5S)-3-Methoxy-1-((S)-2-((1R,2R)-1-methoxy-2-methyl-3-oxo-3-(((S)-2-phenyl-1-(1H-pyrazol-3-yl)ethyl)amino)propyl)pyrrolidin-1-yl)-5-methyl-1-oxoheptan-4-yl)(methyl)amino)-3-methyl-1-oxobutan-2-yl)-2-methyl-2-azabicyclo[2.2.1]heptane-3-carboxamide] | 0.127 nM | 0.251 nM | 0.428 nM | 0.596 nM | – | 0.2 nM | – | – | – |
| CC[C@H](C)[C@@H]([C@@H](CC(=O)N1CCC[C@H]1[C@H](OC)[C@@H](C)C(=O)N[C@@H](Cc1ccccc1)c1ncccn1)OC)N(C)C(=O)[C@@H](NC(=O)[C@@H]1[C@H]2CC[C@H](C2)N1C)C(C)C [Compound 69, (1R,3S,4S)-N-((S)-1-(((3R,4S,5S)-3-Methoxy-1-((S)-2-((1R,2R)-1-methoxy-2-methyl-3-oxo-3-(((S)-2-phenyl-1-(pyrimidin-2-yl)ethyl)amino)propyl)pyrrolidin-1-yl)-5-methyl-1-oxoheptan-4-yl)(methyl)amino)-3-methyl-1-oxobutan-2-yl)-2-methyl-2-azabicyclo[2.2.1]heptane-3-carboxamide] | 0.065 nM | 0.091 nM | 0.189 nM | 0.092 nM | – | 0.142 nM | – | – | – |
| CC[C@H](C)[C@@H]([C@@H](CC(=O)N1CCC[C@H]1[C@H](OC)[C@@H](C)C(=O)N[C@H](Cc1ccccc1)c1ncccn1)OC)N(C)C(=O)[C@@H](NC(=O)[C@@H]1[C@H]2CC[C@H](C2)N1C)C(C)C [Compound 70, (1R,3S,4S)-N-((S)-1-(((3R,4S,5S)-3-methoxy-1-((S)-2-((1R,2R)-1-methoxy-2-methyl-3-oxo-3-(((R)-2-phenyl-1-(pyrimidin-2-yl)ethyl)amino)propyl)pyrrolidin-1-yl)-5-methyl-1-oxoheptan-4-yl)(methyl)amino)-3-methyl-1-oxobutan-2-yl)-2-methyl-2-azabicyclo[2.2.1]heptane-3-carboxamide] | 1.38 nM | 2.36 nM | 4.73 nM | 2.16 nM | – | 3.81 nM | – | – | – |
| CC[C@H](C)[C@@H]([C@@H](CC(=O)N1CCC[C@H]1[C@H](OC)[C@@H](C)C(=O)N[C@@H](Cc1ccccc1)c1nnc(-c2ccccc2)o1)OC)N(C)C(=O)[C@@H](NC(=O)[C@@H]1[C@H]2CC[C@H](C2)N1C)C(C)C [Compound 71, (1R,3S,4S)-N-((S)-1-(((3R,4S,5S)-3-methoxy-1-((S)-2-((1R,2R)-1-Methoxy-2-methyl-3-oxo-3-(((S)-2-phenyl-1-(5-phenyl-1,3,4-oxadiazol-2-yl)ethyl)amino)propyl)pyrrolidin-1-yl)-5-methyl-1-oxoheptan-4-yl)(methyl)amino)-3-methyl-1-oxobutan-2-yl)-2-methyl-2-azabicyclo[2.2.1]heptane-3-carboxamide] | 0.075 nM | 0.124 nM | 0.352 nM | 0.119 nM | – | 0.091 nM | – | – | – |

Reference: patent US9988420B2, “Cytotoxic peptides and conjugates thereof” (priority 2013, dated 2018)
